Results published in patent US20210338548A1, “Mint Flavor Compositions” (The Procter & Gamble Company, priority 2020, published 2021).

Tests used:
[1] = Comparison of cooling attributes of (−)-menthol and racemic menthol in toothpaste (CREST Cavity formulation); format: in vivo
Text: The following data helps support the use of racemic menthol to reduce costs of mint flavor compositions herein described. From internal unpublished research, Table B compares replacing (−)-menthol with a racemic menthol in a 1:1 in a toothpaste formulation. Such a direct replacement is not preferred given the reduced cooling profile and olfactory differences; however, a portion of L-menthol is preferably replaced by racemic-menthol to gain cost efficiency while minimizing impact to the overall mint flavor profiles.
Table B is a comparison of attributes between (−)-menthol and racemic menthol in a toothpaste context (using CREST Cavity formulation).
This value represents the concentration of a coolant where 50% of its maximal cooling is observed.

[2] = Expert sensory testing of racemic menthol vs (−)-menthol in toothpaste (CREST Cavity) with standard spearmint flavor; format: in vivo
Procedure: In separate, unpublished internal experiments, perceptual experiences of racemic menthol are quantified via expert sensory testing. The use of a standard spearmint flavor (minimizing extra menthol contribution) compared racemic menthol to (−)-menthol in a toothpaste formulation (CREST Cavity). There are several sensory observations taken from these experiments. […] These aromatic notes appear during brushing and disappear after 5-10 minutes post expectoration and are more pronounced as concentrations increase.

EC 50 ([1]; concentration of coolant giving 50% of its maximal cooling): 1,250 to 1,500 parts per million
SMILES: CC1CCC(C(C)C)C(O)C1 (racemic) [Racemic Menthol]
Maximum Longevity [1]: Up to 20 minutes
Potency compared to L-Menthol [1]: ~0.65-0.7x
Time Point at Maximum Cooling [1]: ~1 min
Maximum Cooling (0-60 scale) ([1]; 60 = greatest amount of cooling, 0 = least): 35
less potent than (−)-menthol for cooling [2]: 25-30%
